Data: US20070243154A1, “Solubilization of acid ingredients” (L'OREAL, priority 2006, published 2007)

Legend:
[1] = cited from earlier work
[2] = Solubility of salicylic acid in organic compounds liquid at room temperature; assay type: physicochemical; details: dissolved at 60° C., cooled to room temperature, left 2 hours
Procedure: In this example, the solubility of salicylic acid in different liquid materials was compared with mineral oil.
Preparation of Highly Concentrated Salicylic Acid Solutions
Salicylic acid was mixed with various organic compounds, liquid at room temperature, and heated to 60° C. The solution was stirred until all the salicylic acid was dissolved and then cooled to room temperature with stirring. The solution was left undisturbed for 2 hours and observed for crystallization.
The results are expressed by weight of the acid in the dissolving organic compound liquid at room temperature.

SMILES: O=C(O)c1ccccc1O [Salicylic acid, 2-hydroxybenzoic acid]
- volume of alcohol in which 1 g dissolves ([1]; ethanol, 1 g dissolves in the stated volume): 2.7 mL
- volume of ether in which 1 g dissolves ([1]; ether, 1 g in the stated volume): 3 mL
- volume of water in which 1 g dissolves ([1]; water, 1 g in the stated volume): 460 mL
- solubility of salicylic acid ([2]; in C12-C15 alkyl benzoate): 4.8% w/w
- solubility of salicylic acid ([2]; in glyceryl isostearate): 8.25% w/w
- solubility of salicylic acid ([2]; in isostearic acid): 6.5% w/w
- solubility of salicylic acid ([2]; in isostearyl alcohol): 9.9% w/w
- solubility of salicylic acid ([2]; in oleic acid, observed for crystallization, by weight of acid in the solvent): 5.6% w/w
- solubility of salicylic acid ([2]; in propylene glycol isostearate): 9.9% w/w
